The numbers were not newly measured in publication PMC3591469 (Bioorganic & medicinal chemistry letters, 2011), which cites them from elsewhere.

This data set concerns recombinant Brd4 protein derived from bacteria. As to conditions: cell-permeable small molecule.

For `Cc1sc2c(c1C)C(c1ccc(Cl)cc1)=N[C@@H](CC(=O)OC(C)(C)C)c1nnc(C)n1-2` [JQ1], the “inhibition of recombinant Brd4” value was “selective and potent inhibitor”.
